Test results reported in US20260125375A1 (Pfizer Inc., priority 2022, published 2026).

Assays:
CBL-B (residues 36-427) = molecular target: T1, CBL-B (residues 36-427) (Homo sapiens, UniProt Q13191); test: Ligand Displacement Assay (LDA), HTRF competitive binding against BODIPY-labeled fluorescent tracer, CBL-B; conditions: geometric mean of the number of tests, read-out: CBL-B Ki (nM) GMean
T1 construct: Purified CBL-B (residues 36-427) and C-CBL (residues 46-435) proteins from baculovirus-infected insect cells; made in house; host or cells: baculovirus-infected insect cells
Method in brief: (§1)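 Insect-cell (baculovirus) protein, N-term AviTag biotinylated via BirA, captured by SA-Tb; BODIPY tracer, KD measured per protein. 3-fold serial dilutions, duplicate, […], 2% DMSO final. Ki (nM) = geomean of runs.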

C-CBL (residues 46-435) = molecular target: T2, C-CBL (residues 46-435) (Homo sapiens, UniProt P22681); test: Ligand Displacement Assay (LDA), HTRF competitive binding against BODIPY-labeled fluorescent tracer, C-CBL; conditions: geometric mean of the number of tests, read-out: C-CBL Ki (nM) GMean
T2 construct: Purified CBL-B (residues 36-427) and C-CBL (residues 46-435) proteins from baculovirus-infected insect cells; made in house; host or cells: baculovirus-infected insect cells
T2 sequence (P22681 46-435): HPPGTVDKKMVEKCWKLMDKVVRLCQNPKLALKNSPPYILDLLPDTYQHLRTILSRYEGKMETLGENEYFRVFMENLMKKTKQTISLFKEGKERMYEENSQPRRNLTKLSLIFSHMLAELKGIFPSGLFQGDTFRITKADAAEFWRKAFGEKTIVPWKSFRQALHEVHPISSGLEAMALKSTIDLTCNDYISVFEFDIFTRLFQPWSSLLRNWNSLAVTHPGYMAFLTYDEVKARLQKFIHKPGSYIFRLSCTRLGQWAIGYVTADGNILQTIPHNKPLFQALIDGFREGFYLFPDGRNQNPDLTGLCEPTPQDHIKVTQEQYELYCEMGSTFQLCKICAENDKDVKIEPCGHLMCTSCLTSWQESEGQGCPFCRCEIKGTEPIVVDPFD
Method in brief: as §1

| Structure (SMILES) | Ki (CBL-B (residues 36-427)) | Ki (C-CBL (residues 46-435)) |
| --- | --- | --- |
| C[C@H](N[C@H]1CCOC1)c1nc(C(F)(F)F)cc2c(-c3cccc([C@H](c4nncn4C)C4CCC4)c3)n[nH]c12 (single isomer, unassigned) [Example C2] | 3.9 nM | 55.6 nM |
| C[C@@H](N[C@H]1CCOC1)c1nc(C(F)(F)F)cc2c(-c3cccc([C@H](c4nncn4C)C4CCC4)c3)n[nH]c12 (single isomer, unassigned) [Example C3] | 7.8 nM | 52.1 nM |
| C[C@H](NC1CCCC1)c1nc(C(F)(F)F)cc2c(-c3cccc([C@H](c4nncn4C)C4CCC4)c3)n[nH]c12 (single isomer, unassigned) [Example C10] | 11.4 nM | 108 nM |
| C[C@@H](NC1CCCC1)c1nc(C(F)(F)F)cc2c(-c3cccc([C@H](c4nncn4C)C4CCC4)c3)n[nH]c12 (single isomer, unassigned) [Example C11] | 0.6 nM | 3.7 nM |
| C[C@H](N[C@H]1CCC(F)(F)C1)c1nc(C(F)(F)F)cc2c(-c3cccc(C4(Cc5nncn5C)COC4)c3)n[nH]c12 (single isomer, unassigned) [Example C12] | 0.9 nM | 1.3 nM |
| C[C@@H](N[C@H]1CCC(F)(F)C1)c1nc(C(F)(F)F)cc2c(-c3cccc(C4(Cc5nncn5C)COC4)c3)n[nH]c12 (single isomer, unassigned) [Example C13] | 2.3 nM | 8 nM |
| C[C@@H](NC1CCCC1)c1nc(C(F)(F)F)cc2c(-c3cccc(C4(Cc5nncn5C)COC4)c3)n[nH]c12 (single isomer, unassigned) [Example C15] | 8.9 nM | 42.1 nM |
| C[C@H](N[C@@H]1CCC(F)(F)C1)c1nc(C(F)(F)F)cc2c(-c3cccc(C4(Cc5nncn5C)COC4)c3)n[nH]c12 (single isomer, unassigned) [Example C17] | 4 nM | 24.8 nM |
| C[C@@H](N[C@@H]1CCC(F)(F)C1)c1nc(C(F)(F)F)cc2c(-c3cccc(C4(Cc5nncn5C)COC4)c3)n[nH]c12 (single isomer, unassigned) [Example C18] | 2.2 nM | 15.1 nM |
| CC(c1nc(C(F)(F)F)cc2c(-c3cccc(C4(Cc5nncn5C)COC4)c3)n[nH]c12)N1CCC[C@H](C)C1 (single isomer, unassigned) [Example C19] | 10.8 nM | 61.3 nM |
| CC(c1nc(C(F)(F)F)cc2c(-c3cccc(C4(Cc5nncn5C)COC4)c3)n[nH]c12)N1CCC[C@H](C)C1 (single isomer, unassigned) [Example C20] | 2.4 nM | 16.9 nM |
| CC(c1nc(C(F)(F)F)cc2c(-c3cccc(C4(Cc5nncn5C)COC4)c3)n[nH]c12)N1CCCCC1 (single isomer, unassigned) [Example C21, 3-(3-{3-[(4-methyl-4H-1,2,4-triazol-3-yl)methyl]oxetan-3-yl}phenyl)-7-[(1ξ)-1-(piperidin-1-yl)ethyl]-5-(trifluoromethyl)-1H-pyrazolo[3,4-c]pyridine] | 21.3 nM | 93.5 nM |
| CC(c1nc(C(F)(F)F)cc2c(-c3cccc(C4(Cc5nncn5C)COC4)c3)n[nH]c12)N1CCCCC1 (single isomer, unassigned) [Example C22, 3-(3-{3-[(4-methyl-4H-1,2,4-triazol-3-yl)methyl]oxetan-3-yl}phenyl)-7-[(1ξ)-1-(piperidin-1-yl)ethyl]-5-(trifluoromethyl)-1H-pyrazolo[3,4-c]pyridine] | 24.1 nM | 133 nM |
| CC(c1nc(C(F)(F)F)cc2c(-c3cccc(C4(Cc5nncn5C)COC4)c3)n[nH]c12)N1CCOCC1 (single isomer, unassigned) [Example C23, 3-(3-{3-[(4-methyl-4H-1,2,4-triazol-3-yl)methyl]oxetan-3-yl}phenyl)-7-[(1ξ)-1-(morpholin-4-yl)ethyl]-5-(trifluoromethyl)-1H-pyrazolo[3,4-c]pyridine] | 5.7 nM | 24.8 nM |
| CC(c1nc(C(F)(F)F)cc2c(-c3cccc(C4(Cc5nncn5C)COC4)c3)n[nH]c12)N1CCOCC1 (single isomer, unassigned) [Example C24, 3-(3-{3-[(4-methyl-4H-1,2,4-triazol-3-yl)methyl]oxetan-3-yl}phenyl)-7-[(1ξ)-1-(morpholin-4-yl)ethyl]-5-(trifluoromethyl)-1H-pyrazolo[3,4-c]pyridine] | 28.3 nM | 134 nM |
| CC(c1nc(C(F)(F)F)cc2c(-c3cccc(C4(Cc5nncn5C)COC4)c3)n[nH]c12)N1C[C@@H](F)[C@H](F)C1 (single isomer, unassigned) [Example C25] | 6.5 nM | 33.1 nM |

| Structure (SMILES) | Ki (CBL-B (residues 36-427)) | Ki (C-CBL (residues 46-435)) |
| --- | --- | --- |
| C[C@H](c1nc(C(F)(F)F)cc2c(-c3cccc(C4(Cc5nncn5C)COC4)c3)n[nH]c12)N1C[C@@H](F)[C@H](F)C1 (single isomer, unassigned) [Example C26] | 40.5 nM | 198 nM |
| CC(NC1CNC1)c1nc(C(F)(F)F)cc2c(-c3cccc(C4(Cc5nncn5C)COC4)c3)n[nH]c12 (single isomer, unassigned) [Example C27, N-{(1ξ)-1-[3-(3-{3-[(4-methyl-4H-1,2,4-triazol-3-yl)methyl]oxetan-3-yl}phenyl)-5-(trifluoromethyl)-1H-pyrazolo[3,4-c]pyridin-7-yl]ethyl}azetidin-3-amine] | 31.4 nM | 76 nM |
| CC(NC1CNC1)c1nc(C(F)(F)F)cc2c(-c3cccc(C4(Cc5nncn5C)COC4)c3)n[nH]c12 (single isomer, unassigned) [Example C28, N-{(1ξ)-1-[3-(3-{3-[(4-methyl-4H-1,2,4-triazol-3-yl)methyl]oxetan-3-yl}phenyl)-5-(trifluoromethyl)-1H-pyrazolo[3,4-c]pyridin-7-yl]ethyl}azetidin-3-amine] | 33.4 nM | 114 nM |
| CC1CN(Cc2nc(C(F)(F)F)cc3c(-c4cccc(C5(Cc6nncn6C)COC5)c4)n[nH]c23)CCC1(F)F (single isomer, unassigned) [Example C31, 7-{[(3ξ)-4,4-difluoro-3-methylpiperidin-1-yl]methyl}-3-(3-{3-[(4-methyl-4H-1,2,4-triazol-3-yl)methyl]oxetan-3-yl}phenyl)-5-(trifluoromethyl)-1H-pyrazolo[3,4-c]pyridine] | 21.7 nM | 112 nM |
| CC1CN(Cc2nc(C(F)(F)F)cc3c(-c4cccc(C5(Cc6nncn6C)COC5)c4)n[nH]c23)CCC1(F)F (single isomer, unassigned) [Example C32, 7-{[(3ξ)-4,4-difluoro-3-methylpiperidin-1-yl]methyl}-3-(3-{3-[(4-methyl-4H-1,2,4-triazol-3-yl)methyl]oxetan-3-yl}phenyl)-5-(trifluoromethyl)-1H-pyrazolo[3,4-c]pyridine] | 6.7 nM | 55.6 nM |
| CC(C)NC(C)c1nc(C(F)(F)F)cc2c(-c3cccc([C@H](c4nncn4C)C4CCC4)c3)n[nH]c12 (single isomer, unassigned) [Example C34] | 8.9 nM | 88.5 nM |
| CC(C)NC(C)c1nc(C(F)(F)F)cc2c(-c3cccc([C@H](c4nncn4C)C4CCC4)c3)n[nH]c12 (single isomer, unassigned) [Example C35] | 3.1 nM | 29.1 nM |
| C[C@H](N[C@H]1C[C@@H](O)C1)c1nc(C(F)(F)F)cc2c(-c3cccc([C@H](c4nncn4C)C4CCC4)c3)n[nH]c12 (single isomer, unassigned) [Example C36] | 1.8 nM | 16.8 nM |
| C[C@@H](N[C@H]1C[C@@H](O)C1)c1nc(C(F)(F)F)cc2c(-c3cccc([C@H](c4nncn4C)C4CCC4)c3)n[nH]c12 (single isomer, unassigned) [Example C37] | 5.3 nM | 50.6 nM |
| C[C@H](N[C@H]1CCC[C@@H]1O)c1nc(C(F)(F)F)cc2c(-c3cccc([C@H](c4nncn4C)C4CCC4)c3)n[nH]c12 (single isomer, unassigned) [Example C47] | 0.7 nM | 5 nM |
| CCNC(C)c1nc(C(F)(F)F)cc2c(-c3cccc([C@H](c4nncn4C)C4CCC4)c3)n[nH]c12 (single isomer, unassigned) [Example C89] | 8 nM | 105 nM |
| C[C@@H](N[C@H]1C[C@H](O)C1)c1nc(C(F)(F)F)cc2c(-c3cccc([C@H](c4nncn4C)C4CCC4)c3)n[nH]c12 (single isomer, unassigned) [Example C92] | 4.4 nM | 50 nM |
| C[C@H](N[C@H]1C[C@@H](F)C1)c1nc(C(F)(F)F)cc2c(-c3cccc([C@H](c4nncn4C)C4CCC4)c3)n[nH]c12 (single isomer, unassigned) [Example C95] | 4.7 nM | 28 nM |
| C[C@@H](N[C@H]1C[C@@H](F)C1)c1nc(C(F)(F)F)cc2c(-c3cccc([C@H](c4nncn4C)C4CCC4)c3)n[nH]c12 (single isomer, unassigned) [Example C96] | 9.2 nM | 53.5 nM |
| C[C@H](N[C@@H]1CCOC1)c1nc(C(F)(F)F)cc2c(-c3cccc([C@H](c4nncn4C)C4CCC4)c3)n[nH]c12 (single isomer, unassigned) [Example D2] | 5.8 nM | 77.1 nM |
| C[C@@H](N[C@@H]1CCOC1)c1nc(C(F)(F)F)cc2c(-c3cccc([C@H](c4nncn4C)C4CCC4)c3)n[nH]c12 (single isomer, unassigned) [Example D3] | 6 nM | 69.7 nM |
